Several values for one entry are separate records, joined by “and”; a condition that tells them apart may be missing. Equal entries are not always repeated.
How the values were obtained:
[1] = system: wild-type AG83 L. donovani amastigotes in spleen; assay: Leishman-Donovan Unit (LDU) assay in infected mice; type: in vivo, BALB/c mice
Procedure: Spleen smears were stained with Giemsa to confirm infection. The infected animals were divided into three groups consisting 4-5 animals per group. The groups were classified as the infected control group, BPQ treated group and BPQ+NP treated group. […] The infected control group was injected an equal volume of PBS during the entire dosing period. […] After that spleen impression smears were prepared on glass slides and stained with Giemsa to analyze infected visceral organ (spleen) microscopically. The parasite burdens were determined by evaluating the LDU values, which were calculated by multiplying the number of amastigotes counted per 500 nuclei with the spleen weight in mg.

[2] = system: wild-type L. donovani AG83 amastigotes in spleen; assay: Culture microtitration assay (CMA) in infected mice; type: in vivo, BALB/c mice; conditions: for Spleen: 7 days post-treatment, n = 5; for Suppression (%) of L. donovani amastigote burden in spleen: CMA method, 2 mg/kg
Procedure: The infected control group was injected with 0.2 mL of sterile water during the entire dosing period. Seven days post-treatment, the animals were sacrificed, and their spleens were aseptically removed and weighed for determination of amastigote burden by microtitration assay as described elsewhere. Wells were examined for viable and motile promastigotes. The final titer was the last dilution for which the well contained at least one parasite. […] (5) .

[3] = system: axenic L.donovani amastigotes, GE1 (isolated strain resistant to SSG); assay: Antileishmanial activity against axenic amastigotes, GE1; type: cell-based
Procedure: (§1) L. donovani AG83 (MHOM/IN/83/AG83) and GE1 (MHOM/IN/80/GE1F8R) promastigotes were routinely grown in medium 199 supplemented with 10% heat-inactivated fetal bovine serum, 2 mM L-glutamine, 20 mM HEPES, 100 U/mL penicillin, and 100 μg/mL streptomycin at 25°C. L. donovani amastigote forms were grown and maintained as described previously. Axenic amastigote forms were derived from promastigote forms by culturing them in MMA/20 (medium for axenic amastigote) at pH 5.5 [22]. Axenically grown amastigotes were maintained by sub-culture of 10^5 parasites/ml repeated every fifth day under experimental conditions of 37°C temperature and 5% CO2 environment.
(§2) The antileishmanial activity of the drug specimens (BPQ+NP, BPQ, SSG, AmB, PMM, and MF) against the axenic amastigotes were evaluated based on the IC50 value, which is the concentration of the specimen required to kill 50% of the parasites. The parasites were first seeded into 96-well plates at a density of 1x10^5 amastigotes/well in 200 μL medium. Then, 10 μL of the drug candidates at various concentrations were added and the final volume was adjusted to […] medium. The number of amastigotes in the wells treated with each specimen were compared to those in the untreated control wells.
(§3) Microscopic examinations were performed in duplicates with various concentrations of pure drugs or buparvaquone-loaded nanoparticles and also for control wells. The amastigotes cells were counted for all cases using a hemocytometer. The mean of the control wells was considered as 100% survival. The counts in the treated wells at various concentrations were converted into percentages. Giemsa-stained slides of the macrophages infected with amastigotes were observed under a light microscope. Then the numbers of amastigotes and infected macrophages per 100 cells were counted for each slide. The percentage (%) of inhibition was calculated by using the equation %ofinhibition=C−T/C×100, (2) where C is the number of amastigotes/infected macrophages per 100 cells in the control well and T is the number of amastigotes/infected macrophages per 100 cells in the drug-treated well.
(§4) Origin version 6.1 software was used to calculate IC50 and CC50 values by plotting a graph of the percentage of inhibition at various concentrations of all the observations.

[4] = system: axenic L.donovani amastigotes, AG83-R, SSG (SSG resistant strain generated from AG83); assay: microbe, parasite or virus in culture; type: cell-based
Procedure: as §1
(§5) SSG and PMM resistant L. donovani amastigotes were generated by using the methods described previously. […] The cultures were stabilized for three subcultures. Then, the drug concentration was increased until the cell population decreased approximately to 20% for each batch. Finally, when 90% cell population of the initial count was reduced, the phenotype generated was plated on medium 199 agar plates containing the same drug concentration, and a single colony was picked for culture in medium 199 liquid media at the same drug concentration. The cultured promastigotes are converted into amastigotes as described above. Drug pressure was withdrawn, and stability was checked at one, two, and four months. SSG and PMM resistant phenotype clones were labeled as AG83-R,SSG and AG83-R, PMM, respectively.
as §2, §3, §4

[5] = system: axenic L.donovani amastigotes, AG83-R, PMM (PMM resistant strain generated from AG83); assay: microbe, parasite or virus in culture; type: cell-based
Procedure: as §1, §5, §2, §3, §4

[6] = system: axenic L.donovani amastigotes, wild-type AG83; assay: Antileishmanial activity against axenic amastigotes, wild-type AG83; type: cell-based
Procedure: as §1, §2, §3, §4

[7] = system: intracellular L.donovani amastigotes, AG83-R, PMM, in macrophages; assay: microbe, parasite or virus in culture; type: cell-based
Procedure: as §5
(§6) The intracellular antileishmanial activity was evaluated based on the reduction in the amastigote numbers in the infected macrophages after the treatment. The method was adapted from our previous work. Briefly, 4x10^6 amastigotes in 500 μL of RPMI-1640 suspension were added to each well containing macrophages with the macrophage: parasite ratio of 1:10. The plates were incubated for 4 h at 37°C in 5% CO2. After the parasite internalization period, cells were washed at least twice with fresh media to remove non-phagocytosed parasites. Then, the drug specimen suspended in 1 mL RPMI-1640 was added, and the samples were incubated for 72 h at 37°C in 5% CO2. The medium was aspirated, the coverslips were removed, and then fixed with methanol and air-dried. After staining with Giemsa, 100 cells on the glass discs were counted. Three independent experiments in quadruplicate for each concentration were performed.
as §3, §4

[8] = system: intracellular L.donovani amastigotes, AG83-R, SSG, in macrophages; assay: microbe, parasite or virus in culture; type: cell-based
Procedure: as §5, §6, §3, §4

[9] = system: peritoneal macrophages; set-up: method as in earlier work; conditions: ref 32 (Reimao et al.); cited from earlier work
[10] = system: intracellular L.donovani amastigotes, GE1, in macrophages; assay: Antileishmanial activity against intracellular amastigotes, GE1; type: cell-based
Procedure: as §6, §3, §4

[11] = system: L. infantum infection; set-up: method as in earlier work; conditions: against L. infantum infection; ref 32 (Reimao et al.); cited from earlier work
[12] = 2 doses of 2 mg/kg i.p. at 5 days interval
[13] = 4 doses of 2 mg/kg i.p. at 5 days interval
[14] = IC50 against drug resistant strain / IC50 against wild-type strain (AG83), axenic
[15] = Leishmania donovani, axenic amastigotes, mean ± σ, n = 4

Question: With `CC(C)(C)[C@H]1CC[C@H](CC2=C(O)C(=O)c3ccccc3C2=O)CC1` [BPQ, Buparvaquone] as the compound, how does the “Fold reduction of amastigote burden in spleen compared with the control group” value ([1]; 1 mg/kg i.p. for 5 consecutive days) read?
Answer: The value was 20 fold.

Question: And the Spleen wt. ([1]; infected BALB/c mice, 1 mg/kg i.p. for 5 consecutive days, day 7 post-treatment, n = 5)?
Answer: The Spleen wt. was 100 ± 10 mg.

Question: What about the “Suppression / inhibition of parasite burden in vivo (summary statement)” value ([1]; spleen of infected mice, intraperitoneal, corresponding doses) of the same compound?
Answer: Its value is 50%.

Question: What about the “LDU (Leishman Donovan Unit = number of amastigotes per 500 nuclei × spleen weight in mg)” value ([1]; spleen, 1 mg/kg i.p. for 5 consecutive days) of the same compound?
Answer: The value was 2 ± 1 × 10^4.

Question: What about the “Amastigotes per 500 nuclei” value ([1]; spleen, 1 mg/kg i.p. for 5 consecutive days, day 7 post-treatment) of the same compound?
Answer: The value was 200 ± 20.

Question: And the “Spleen” value [2, 12]?
Answer: The value was 140 ± 22 mg.

Question: What about the “Suppression (%) of L. donovani amastigote burden in spleen” value [2, 12] of the same compound?
Answer: Its value is 52% and 52 ± 3 %.

Question: What about the “Spleen” value [2, 13] of the same compound?
Answer: Its value is 131 ± 18 mg.

Question: And the “Suppression (%) of L. donovani amastigote burden in spleen” value [2, 13]?
Answer: The value was 64% and 64 ± 4 %.

Question: And the “Reduction of parasite burden (CMA)” value ([2]; spleen, 2 mg/kg i.p., 2 or 4 doses at 5 days interval)?
Answer: Its value is 50%.

Question: And the “Fold higher axenic IC50 of pure BPQ than BPQ+NP” value (“Fold higher axenic IC50” below) ([3]; GE1)?
Answer: The value was 4 fold.

Question: And the “Resistance index (RI), GE1” value [3, 14]?
Answer: Its value is 1.2 ± 1.4.

Question: And the IC50 [3, 15]?
Answer: Its IC50 is 4.1 ± 0.8 µM.

Question: And the “Fold higher axenic IC50” value ([4]; AG83-R, SSG)?
Answer: The value was 8 fold.

Question: What about the “Resistance index (RI), AG83-R, SSG” value [4, 14] of the same compound?
Answer: The value was 2.4 ± 1.2.

Question: What about the IC50 ([4]; Leishmania donovani, read-out: Axenic IC50, AG83-R, SSG) of the same compound?
Answer: Its IC50 is 8.1 ± 0.8 µM.

Question: And the “Fold higher axenic IC50” value ([5]; AG83-R, PMM)?
Answer: Its value is 7 fold.

Question: And the “Resistance index (RI), AG83-R, PMM” value [5, 14]?
Answer: The value was 2.1 ± 1.5.

Question: And the IC50 ([5]; Leishmania donovani, read-out: Axenic IC50, AG83-R, PMM)?
Answer: The IC50 was 7.1 ± 0.8 µM.

Question: What about the IC50 [6, 15] of the same compound?
Answer: Its IC50 is 3.4 ± 0.3 µM.

Question: What about the “Fold higher axenic IC50” value ([6]; wild-type AG83) of the same compound?
Answer: Its value is 3 fold.

Question: What about the “Fold larger cellular IC50 of pure BPQ than BPQ+NP” value (from here on “Fold larger cellular IC50”) ([7]; AG83-R, PMM) of the same compound?
Answer: The value was 5 fold.

Question: And the “Selectivity index (SI), AG83-R, PMM” value ([7]; CC50/IC50, intracellular)?
Answer: The value was 60 ± 10.

Question: And the IC50 ([7]; Leishmania donovani, Macrophage, 72 h, read-out: Cellular IC50, AG83-R, PMM)?
Answer: The IC50 was 4.8 ± 0.5 µM.

Question: What about the “Fold larger cellular IC50” value ([8]; AG83-R, SSG) of the same compound?
Answer: Its value is 5 fold.

Question: What about the “Selectivity index (SI), AG83-R, SSG” value ([8]; CC50/IC50, intracellular) of the same compound?
Answer: Its value is 60 ± 10.

Question: What about the IC50 ([8]; Leishmania donovani, Macrophage, 72 h, read-out: Cellular IC50, AG83-R, SSG) of the same compound?
Answer: The IC50 was 5.4 ± 0.4 µM.

Question: And the CC50 [9]?
Answer: Its CC50 is over 230 µM.

Question: What about the “Selectivity index (SI), GE1” value ([10]; CC50/IC50, intracellular) of the same compound?
Answer: Its value is 90 ± 10.

Question: And the “Fold larger cellular IC50” value ([10]; GE1)?
Answer: Its value is 4 fold.

Question: What about the IC50 ([10]; Leishmania donovani, Macrophage, intracellular amastigotes, 72 h, mean ± σ, n = 4, read-out: Cellular IC50, GE1) of the same compound?
Answer: Its IC50 is 3.8 ± 0.4 µM.

Question: What about the IC50 [11] of the same compound?
Answer: Its IC50 is 1.5 µM.

— publication PMC8274846, “Biogenic nanoporous silicon carrier improves the efficacy of buparvaquone against resistant visceral leishmaniasis” (PLoS Neglected Tropical Diseases, 2021)
